Reference: article PMC3756485 (The Biochemical journal, 2012)

Columns and labels:
PfENT4 [1] = target: T1, PfENT4 (Plasmodium falciparum, UniProt Q8I2A8); type: cell-based; settings: 60 min; for Uptake of radiolabeled substrate relative to H2O-injected oocytes: 1.5 μM radiolabeled compound; for Saturability of concentration-dependent uptake (Michaelis-Menten): concentrations up to 10 mM
PvENT4 [2] = target: T2, PvENT4 (Plasmodium vivax, UniProt A5K9X9); type: cell-based; settings: 60 min; for Uptake of radiolabeled substrate relative to H2O-injected oocytes: 1.5 μM radiolabeled compound; for Saturability of concentration-dependent uptake (Michaelis-Menten): concentrations up to 10 mM
PfENT1 = settings: cited from earlier work
PfENT4 [3] = target: T1, PfENT4; test: cell-based
PvENT4 [4] = target: T2, PvENT4; test: cell-based
[5] = system: P. falciparum phosphodiesterase-1; settings: cited from earlier work
P. falciparum parasites = settings: read-out: IC50, in vitro growth; P. falciparum FCR-3 strain parasites; cited from earlier work
[6] = read-out: Inhibition of adenine uptake

In the case of Nc1ncnc2c1ncn2[C@H]1C[C@H](O)[C@@H](CO)O1 [2′-deoxyadenosine], the “Uptake of radiolabeled substrate relative to H2O-injected oocytes” value (PfENT4 [1]) is reported as “greater uptake” and the “Uptake of radiolabeled substrate relative to H2O-injected oocytes” value (PvENT4 [2]) is reported as “greater uptake”.
In the case of Nc1nc2c(ncn2[C@H]2C[C@H](O)[C@@H](CO)O2)c(=O)[nH]1 [2′-deoxyguanosine], the “Uptake of radiolabeled substrate relative to H2O-injected oocytes” value (PfENT4 [1]) is reported as “greater uptake” and the “Uptake of radiolabeled substrate relative to H2O-injected oocytes” value (PvENT4 [2]) is reported as “greater uptake”.
In the case of Nc1ncnc2c1ncn2[C@@H]1O[C@H](COP(=O)(O)O)[C@@H](O)[C@H]1O [AMP, adenosine monophosphate], the “Transport of radiolabeled substrate” value (PfENT4 [1]; PfENT4 oocytes, 1.5 μM, in presence of 250 μM α,β-methyleneADP) is listed as “not observed”, the “Substrate of PfENT1” value (PfENT1) is listed as “not substrates” and the “Transport of radiolabeled substrate” value (PvENT4 [2]; PvENT4 oocytes, 1.5 μM, in presence of 250 μM α,β-methyleneADP) is listed as “not observed”.
In the case of O=c1[nH]cnc2c([C@@H]3N[C@H](CO)[C@@H](O)[C@H]3O)c[nH]c12 [Immucillin-H], the “Inhibition of [3H]adenine uptake at 7 mM compared with 2 mM” value (PfENT4 [3]; PfENT4 oocytes, 150 nM [3H]adenine, 60 min) is reported as “significantly greater inhibition”.
For O=[N+]([O-])c1ccc(CSc2ncnc3c2ncn3[C@@H]2O[C@H](CO)[C@@H](O)[C@H]2O)cc1 [NBMPR, nitrobenzylmercaptopurineriboside], the “Inhibition of adenine uptake” value (PfENT4 [3]; PfENT4 oocytes, 150 nM [3H]adenine, 60 min, compound 10 μM) was “insensitive” and the “Inhibition of adenine uptake” value (PvENT4 [4]; PvENT4 oocytes, 150 nM [3H]adenine, 60 min, compound 10 μM) was “insensitive”.
In the case of Nc1ncnc2[nH]cnc12 [adenine], the “Uptake of radiolabeled substrate relative to H2O-injected oocytes” value (PfENT4 [1]) is reported as “greater uptake”, the “Saturability of concentration-dependent uptake (Michaelis-Menten)” value (“Saturability” below) (PfENT4 [1]; PfENT4 oocytes) is reported as “not saturable” and the Ki (PfENT4 [3]) is reported as 7 ± 2 µM. For the same compound, the Ki (PvENT4 [4]) was 6 ± 2 µM, the “Uptake of radiolabeled substrate relative to H2O-injected oocytes” value (PvENT4 [2]) was “greater uptake” and the “Saturability” value (PvENT4 [2]; PvENT4 oocytes) was “not saturable”.
In the case of Nc1ncnc2c1ncn2[C@@H]1O[C@H](CO)[C@@H](O)[C@H]1O [adenosine], the “Uptake of radiolabeled substrate relative to H2O-injected oocytes” value (PfENT4 [1]) is reported as “greater uptake”, the “Saturability” value (PfENT4 [1]; PfENT4 oocytes) is reported as “not saturable” and the “Uptake of radiolabeled substrate relative to H2O-injected oocytes” value (PvENT4 [2]) is reported as “greater uptake”. The “Saturability” value (PvENT4 [2]; PvENT4 oocytes) was “not saturable”.
In the case of OCCN(CCO)c1nc(N2CCCCC2)c2nc(N(CCO)CCO)nc(N3CCCCC3)c2n1 [dipyridamole], the “Sensitivity of PfENT1 to inhibitor” value (PfENT1) is listed as “insensitive”, the inhibition at 10 µM (PfENT4 [3]; [6]) is listed as ~80% and the inhibition at 10 µM (PvENT4 [4]; [6]) is listed as ~80%. The “Inhibition of recombinant P. falciparum phosphodiesterase-1” value [5] was “inhibits”.
With O=c1[nH]cnc2nc[nH]c12 [hypoxanthine] the “Uptake of radiolabeled substrate relative to H2O-injected oocytes” value (PfENT4 [1]) was “no observed uptake”, the “Inhibition of adenine uptake” value (PfENT4 [3]; PfENT4 oocytes, 150 nM [3H]adenine, 60 min, concentration shown only in Figure 9) was “did not inhibit” and the “Inhibition of adenine uptake” value (PvENT4 [4]; PvENT4 oocytes, 150 nM [3H]adenine, 60 min, concentration shown only in Figure 9) was “did not inhibit”. The “Uptake of radiolabeled substrate relative to H2O-injected oocytes” value (PvENT4 [2]) was “no observed uptake”.
For O=c1[nH]cnc2c1ncn2[C@@H]1O[C@H](CO)[C@@H](O)[C@H]1O [inosine], the “Uptake of radiolabeled substrate relative to H2O-injected oocytes” value (PfENT4 [1]) was “greater uptake” and the “Uptake of radiolabeled substrate relative to H2O-injected oocytes” value (PvENT4 [2]) was “greater uptake”.
In the case of CC(C)=CCNc1ncnc2nc[nH]c12 [isopentenyl adenine], the IC50 (P. falciparum parasites) is given as 8.34 µM.
With Cc1cn([C@H]2C[C@H](O)[C@@H](CO)O2)c(=O)[nH]c1=O [thymidine] the “Uptake of radiolabeled substrate relative to H2O-injected oocytes” value (PfENT4 [1]) was “displayed uptake” and the “Uptake of radiolabeled substrate relative to H2O-injected oocytes” value (PvENT4 [2]) was “displayed uptake”.
In the case of Cc1c[nH]c(=O)[nH]c1=O [thymine], the “Uptake of radiolabeled substrate relative to H2O-injected oocytes” value (PvENT4 [2]) is reported as “less accumulation”.
Work on C/C(=C\CNc1ncnc2[nH]cnc12)CO [trans-zeatin] yielded a Ki (PfENT4 [3]) of 20 ± 3 µM and a Ki (PvENT4 [4]) of 193 ± 21 µM.
With O=c1cc[nH]c(=O)[nH]1 [uracil] the “Uptake of radiolabeled substrate relative to H2O-injected oocytes” value (PvENT4 [2]) was “less accumulation”.
For O=c1[nH]c(=O)c2[nH]c(=O)[nH]c2[nH]1 [urate], the “Competition for adenine transport” value (PfENT4 [3]; PfENT4 oocytes, 150 nM [3H]adenine, 60 min, compound 500 μM) was “did not compete” and the “Competition for adenine transport” value (PvENT4 [4]; PvENT4 oocytes, 150 nM [3H]adenine, 60 min, compound 500 μM) was “did not compete”.
